Results taken from PubChem BioAssay (NCI).
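Dose response: 5 concentrations. Exposure: 48 h. Format: 96-well plates. Endpoint: linear interpolation; highest concentration if not reached. The concentration for 50% growth inhibition is given as GI50. TGI denotes the concentration required for complete inhibition of growth.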

How the values were obtained:
Assay in all cases: growth of human tumour cells (NCI), 48 h
SF-268 CNS = test system: SF-268 CNS
HT29 colon = test system: HT29 colon
PC-3 prostate = test system: PC-3 prostate
HOP-62 NSCLC = test system: HOP-62 NSCLC
SN12C renal = test system: SN12C renal
MALME-3M melanoma = test system: MALME-3M melanoma
TK-10 renal = test system: TK-10 renal
SK-OV-3 ovarian = test system: SK-OV-3 ovarian
SNB-19 CNS = test system: SNB-19 CNS
SNB-75 CNS = test system: SNB-75 CNS
MDA-MB-435 = test system: MDA-MB-435
A549 NSCLC = test system: A549 NSCLC
RPMI-8226 leukemia = test system: RPMI-8226 leukemia
K-562 leukemia = test system: K-562 leukemia
HOP-92 NSCLC = test system: HOP-92 NSCLC
KM12 colon = test system: KM12 colon
M14 melanoma = test system: M14 melanoma
UO-31 renal = test system: UO-31 renal
IGROV1 ovarian = test system: IGROV1 ovarian
CCRF-CEM leukemia = test system: CCRF-CEM leukemia
MOLT-4 leukemia = test system: MOLT-4 leukemia
OVCAR-5 ovarian = test system: OVCAR-5 ovarian
NCI-H226 lung = test system: NCI-H226 lung
HS 578T breast = test system: HS 578T breast
NCI-H522 lung = test system: NCI-H522 lung
SF-539 CNS = test system: SF-539 CNS
UACC-62 melanoma = test system: UACC-62 melanoma
RXF 393 renal = test system: RXF 393 renal
786-0 renal = test system: 786-0 renal

C=C(C)C(=O)O[C@H]1C[C@@]2(C)OC(=CC2=O)/C(C)=C\[C@H]2OC(=O)C(=C)[C@H]12
GI50 (SF-268 CNS): 1990 nM | TGI (SF-268 CNS): > 16700 nM | GI50 (HT29 colon): 957 nM | TGI (HT29 colon): 3290 nM | GI50 (PC-3 prostate): 2010 nM | TGI (PC-3 prostate): 7630 nM | GI50 (HOP-62 NSCLC): 6500 nM | TGI (HOP-62 NSCLC): 24600 nM | GI50 (SN12C renal): 1300 nM | TGI (SN12C renal): 11000 nM | GI50 (MALME-3M melanoma): 666 nM | TGI (MALME-3M melanoma): 1500 nM | GI50 (TK-10 renal): 859 nM | TGI (TK-10 renal): 2060 nM | GI50 (SK-OV-3 ovarian): 10700 nM | TGI (SK-OV-3 ovarian): > 33200 nM | GI50 (SNB-19 CNS): 11100 nM | TGI (SNB-19 CNS): > 33200 nM | GI50 (SNB-75 CNS): 1150 nM | TGI (SNB-75 CNS): 16400 nM | GI50 (MDA-MB-435): 717 nM | TGI (MDA-MB-435): 1780 nM | GI50 (A549 NSCLC): 8470 nM | TGI (A549 NSCLC): > 33200 nM | GI50 (RPMI-8226 leukemia): 1060 nM | TGI (RPMI-8226 leukemia): 3400 nM | GI50 (K-562 leukemia): 1150 nM | TGI (K-562 leukemia): > 33200 nM | GI50 (HOP-92 NSCLC): 1040 nM | TGI (HOP-92 NSCLC): 2990 nM | GI50 (KM12 colon): 3840 nM | TGI (KM12 colon): 8870 nM | GI50 (M14 melanoma): 790 nM | TGI (M14 melanoma): 2370 nM | GI50 (UO-31 renal): 560 nM | TGI (UO-31 renal): 1240 nM | GI50 (IGROV1 ovarian): 1950 nM | TGI (IGROV1 ovarian): 6230 nM | GI50 (CCRF-CEM leukemia): 930 nM | TGI (CCRF-CEM leukemia): 4250 nM | GI50 (MOLT-4 leukemia): 1010 nM | TGI (MOLT-4 leukemia): 3520 nM | GI50 (OVCAR-5 ovarian): 1030 nM | TGI (OVCAR-5 ovarian): 3210 nM | GI50 (NCI-H226 lung): 762 nM | TGI (NCI-H226 lung): 1990 nM | GI50 (HS 578T breast): 8210 nM | TGI (HS 578T breast): > 33200 nM | GI50 (NCI-H522 lung): 461 nM | TGI (NCI-H522 lung): 1040 nM | GI50 (SF-539 CNS): 1070 nM | TGI (SF-539 CNS): 4780 nM | GI50 (UACC-62 melanoma): 675 nM | TGI (UACC-62 melanoma): 1800 nM | GI50 (RXF 393 renal): 601 nM | TGI (RXF 393 renal): 1190 nM | GI50 (786-0 renal): 660 nM | TGI (786-0 renal): 1500 nM
